Species: Rattus norvegicus
Test: DrugMatrix - Regimen: Daily Repeat
Assay type: toxicity, organism-based, Sprague-Dawley
Set-up: regimen Daily Repeat, gender Male, age 6-8 weeks
Details: in vivo, po, route oral GAVAGE, […]; for ABSOLUTE BASOPHIL / BASOPHIL / ABSOLUTE EOSINOPHIL / ABSOLUTE LYMPHOCYTE / ABSOLUTE MONOCYTE / ABSOLUTE SEGMENTED NEUTROPHIL / EOSINOPHIL / ERYTHROCYTE COUNT / HEMATOCRIT / HEMOGLOBIN / LEUKOCYTE COUNT / LYMPHOCYTE / MEAN CORPUSCULAR HEMOGLOBIN / MEAN CORPUSCULAR HEMOGLOBIN CONCENTRATION / MEAN CORPUSCULAR VOLUME / MONOCYTE / NEUTROPHIL / NUCLEATED RED BLOOD CELLS / PLATELET COUNT: tissue Blood; for ALANINE AMINOTRANSFERASE / ALKALINE PHOSPHATASE / ASPARTATE AMINOTRANSFERASE / BLOOD UREA NITROGEN / CARBON DIOXIDE / CHLORIDE / CHOLESTEROL / CREATINE PHOSPHOKINASE / CREATININE / GLUCOSE / LACTATE DEHYDROGENASE / LIPASE / PHOSPHORUS / POTASSIUM / SODIUM / TOTAL BILIRUBIN: tissue Plasma
[1] = 0 mg/kg, 72 h, dose level Control, time 3 day
[2] = 0 mg/kg, 120 h, dose level Control, time 5 day
[3] = 0.3 mg/kg, 72 h, dose level Low, time 3 day
[4] = 0.3 mg/kg, 120 h, dose level Low, time 5 day
[5] = 27 mg/kg, 72 h, dose level M1, time 3 day
[6] = 54 mg/kg, 72 h, dose level High, time 3 day

## CN(Cc1cnc2nc(N)nc(N)c2n1)c1ccc(C(=O)N[C@@H](CCC(=O)O)C(=O)O)cc1 [METHOTREXATE]
[1]
  ABSOLUTE BASOPHIL: 0 CELLS/uL
  BASOPHIL: 0%
[2]
  ABSOLUTE BASOPHIL: 0 CELLS/uL
  ABSOLUTE EOSINOPHIL: 331.5 CELLS/uL
  BASOPHIL: 0%
[3]
  ABSOLUTE BASOPHIL: 0 CELLS/uL
  ABSOLUTE EOSINOPHIL: 94 CELLS/uL
  ABSOLUTE LYMPHOCYTE: 7221.33 CELLS/uL
  ABSOLUTE MONOCYTE: 172.67 CELLS/uL
  ABSOLUTE SEGMENTED NEUTROPHIL: 2345.33 CELLS/uL
  BASOPHIL: 0%
  EOSINOPHIL: 0.67%
  ERYTHROCYTE COUNT: 5.78 x10E6/uL
  HEMATOCRIT: 37.2%
  HEMOGLOBIN: 14.3 G/DL
  LEUKOCYTE COUNT: 9.83 x10E3/uL
  LYMPHOCYTE: 70%
  MEAN CORPUSCULAR HEMOGLOBIN: 24.77 pg
  MEAN CORPUSCULAR HEMOGLOBIN CONCENTRATION: 38.47 G/DL
  MEAN CORPUSCULAR VOLUME: 64.33 fL
  MONOCYTE: 1.67%
  NEUTROPHIL: 27.67%
  NUCLEATED RED BLOOD CELLS: 0 /100WBC
  PLATELET COUNT: 997.67 x10E3/uL
  ALANINE AMINOTRANSFERASE: 69 u/L
  ALKALINE PHOSPHATASE: 597.33 u/L
  ASPARTATE AMINOTRANSFERASE: 118.33 u/L
  BLOOD UREA NITROGEN: 12.33 mg/dL
  CARBON DIOXIDE: 20 mmol/L
  CHLORIDE: 100.67 MEQ/L
  CHOLESTEROL: 42.33 mg/dL
  CREATINE PHOSPHOKINASE: 1224.33 u/L
  CREATININE: 0.11 mg/dL
  GLUCOSE: 237.67 mg/dL
  LACTATE DEHYDROGENASE: 410.67 u/L
  LIPASE: 11.67 u/L
  PHOSPHORUS: 14.63 mg/dL
  POTASSIUM: 6.55 MEQ/L
  SODIUM: 141.9 MEQ/L
  TOTAL BILIRUBIN: 0.13 mg/dL
[4]
  ABSOLUTE BASOPHIL: 0 CELLS/uL
  ABSOLUTE EOSINOPHIL: 124.67 CELLS/uL
  ABSOLUTE LYMPHOCYTE: 6857.33 CELLS/uL
  ABSOLUTE MONOCYTE: 225.67 CELLS/uL
  ABSOLUTE SEGMENTED NEUTROPHIL: 959 CELLS/uL
  BASOPHIL: 0%
  EOSINOPHIL: 1.33%
  ERYTHROCYTE COUNT: 5.9 x10E6/uL
  HEMATOCRIT: 37.7%
  HEMOGLOBIN: 14.3 G/DL
  LEUKOCYTE COUNT: 8.17 x10E3/uL
  LYMPHOCYTE: 82.33%
  MEAN CORPUSCULAR HEMOGLOBIN: 24.27 pg
  MEAN CORPUSCULAR HEMOGLOBIN CONCENTRATION: 37.93 G/DL
  MEAN CORPUSCULAR VOLUME: 63.93 fL
  MONOCYTE: 2.67%
  NEUTROPHIL: 13.67%
  NUCLEATED RED BLOOD CELLS: 0 /100WBC
  PLATELET COUNT: 1097 x10E3/uL
  ALANINE AMINOTRANSFERASE: 52.33 u/L
  ALKALINE PHOSPHATASE: 510 u/L
  ASPARTATE AMINOTRANSFERASE: 80.33 u/L
  BLOOD UREA NITROGEN: 10 mg/dL
  CARBON DIOXIDE: 24 mmol/L
  CHLORIDE: 102.33 MEQ/L
  CHOLESTEROL: 38 mg/dL
  CREATINE PHOSPHOKINASE: 556.67 u/L
  CREATININE: 0.1 mg/dL
  GLUCOSE: 165.67 mg/dL
  LACTATE DEHYDROGENASE: 131.67 u/L
  LIPASE: 6.67 u/L
  PHOSPHORUS: 12.1 mg/dL
  POTASSIUM: 6.83 MEQ/L
  SODIUM: 142.1 MEQ/L
  TOTAL BILIRUBIN: 0.2 mg/dL
[5]
  ABSOLUTE BASOPHIL: 0 CELLS/uL
  ABSOLUTE EOSINOPHIL: 0 CELLS/uL
  BASOPHIL: 0%
  EOSINOPHIL: 0%
  NUCLEATED RED BLOOD CELLS: 0 /100WBC
  CREATININE: 0.19 mg/dL
  TOTAL BILIRUBIN: 0.13 mg/dL
[6]
  ABSOLUTE BASOPHIL: 0 CELLS/uL
  ABSOLUTE EOSINOPHIL: 68 CELLS/uL
  ABSOLUTE LYMPHOCYTE: 3442 CELLS/uL
  ABSOLUTE MONOCYTE: 42 CELLS/uL
  ABSOLUTE SEGMENTED NEUTROPHIL: 1648 CELLS/uL
  BASOPHIL: 0%
  EOSINOPHIL: 1%
  ERYTHROCYTE COUNT: 7.17 x10E6/uL
  HEMATOCRIT: 43.93%
  HEMOGLOBIN: 17.27 G/DL
  LEUKOCYTE COUNT: 5.2 x10E3/uL
  LYMPHOCYTE: 69%
  MEAN CORPUSCULAR HEMOGLOBIN: 24.07 pg
  MEAN CORPUSCULAR HEMOGLOBIN CONCENTRATION: 39.3 G/DL
  MEAN CORPUSCULAR VOLUME: 61.23 fL
  MONOCYTE: 1%
  NEUTROPHIL: 29%
  NUCLEATED RED BLOOD CELLS: 0 /100WBC
  PLATELET COUNT: 1149 x10E3/uL
  ALANINE AMINOTRANSFERASE: 26.33 u/L
  ALKALINE PHOSPHATASE: 163 u/L
  ASPARTATE AMINOTRANSFERASE: 107 u/L
  BLOOD UREA NITROGEN: 23 mg/dL
  CARBON DIOXIDE: 18.67 mmol/L
  CHLORIDE: 94.5 MEQ/L
  CHOLESTEROL: 36 mg/dL
  CREATINE PHOSPHOKINASE: 1782.67 u/L
  CREATININE: 0.13 mg/dL
  GLUCOSE: 207.67 mg/dL
  LACTATE DEHYDROGENASE: 368.67 u/L
  LIPASE: 37 u/L
  PHOSPHORUS: 11.03 mg/dL
  POTASSIUM: 5.79 MEQ/L
  SODIUM: 137 MEQ/L
  TOTAL BILIRUBIN: 0.2 mg/dL

— ChEMBL document CHEMBL3885881, “DrugMatrix”
